Results on 1 compound are retold here after ChEMBL document CHEMBL3639203, “Macrocyclic indoles as hepatitis C virus inhibitors” (2013).

The test has as its target Genome polyprotein (Hepatitis C virus genotype 1b (strain HC-J4) (HCV), UniProt O92972). As to the kind of experiment: Inhibition Assay: Inhibition assay using HCV NS5B.

Sequence of Genome polyprotein (O92972 2420-3010 limits assumed): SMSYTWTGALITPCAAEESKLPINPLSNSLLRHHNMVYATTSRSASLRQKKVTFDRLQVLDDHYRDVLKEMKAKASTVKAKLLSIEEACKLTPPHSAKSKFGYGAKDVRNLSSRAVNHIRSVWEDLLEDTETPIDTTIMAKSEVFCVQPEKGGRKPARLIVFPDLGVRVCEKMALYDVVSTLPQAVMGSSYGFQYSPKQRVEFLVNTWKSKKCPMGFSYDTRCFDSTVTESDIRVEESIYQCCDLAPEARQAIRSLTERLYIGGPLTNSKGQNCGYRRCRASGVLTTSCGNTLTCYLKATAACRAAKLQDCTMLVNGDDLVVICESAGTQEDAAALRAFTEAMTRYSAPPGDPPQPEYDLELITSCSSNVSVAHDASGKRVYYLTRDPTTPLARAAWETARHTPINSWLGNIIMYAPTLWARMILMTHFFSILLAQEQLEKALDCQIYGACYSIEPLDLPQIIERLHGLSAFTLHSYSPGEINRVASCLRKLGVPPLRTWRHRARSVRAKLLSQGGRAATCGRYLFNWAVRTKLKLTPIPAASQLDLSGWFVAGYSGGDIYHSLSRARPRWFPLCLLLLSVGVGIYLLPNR

The compound `CN1C/C=C\CCNC(=O)Cn2c(-c3ccc(Cl)cc3)c(C3CCCCC3)c3ccc(cc32)C(=O)NS1(=O)=O` gave an IC50 of 170 nM. In other words, the sub-micromolar range.

In general, IC50 refers to the concentration that gives 50% inhibition. A higher IC50 goes with a need for much substance.
